We go through two compounds from patent US20210322369A1, “COMPOSITION FOR IMPROVING INTESTINAL ENVIRONMENT AND METHOD FOR IMPROVING INTESTINAL FLORA” (SUNTORY HOLDINGS LIMITED, priority 2018, published 2021).

The conditions of data set [1]: 100° C.; cited from earlier work.
In data set [2] the test system is gut flora (Akkermansia bacteria, Firmicutes bacteria, Bacteroidetes bacteria). The data set is described as follows: Gut flora improving action in high fat diet mouse model, 16S rRNA gene analysis of feces after eight weeks of intake. Format: in vivo, Mice (C57BL/6J). Conditions: high fat diet mice; for abundance ratio of Firmicutes bacteria to Bacteroidetes bacteria: eight weeks, High fat diet group 7.4, Regular diet group 4.2; for abundance ratio of Firmicutes bacteria to Bacteroidetes bacteria / abundance proportion of Akkermansia bacteria in the gut flora: feces; for change in the abundance ratio of Firmicutes bacteria to Bacteroidetes bacteria, in words: oral intake for eight weeks; for change in the abundance ratio of Firmicutes bacteria to Bacteroidetes bacteria, in words / abundance proportion of Akkermansia bacteria in the gut flora: compared to High fat diet group; for abundance proportion of Akkermansia bacteria in the gut flora: oral intake once a day for eight weeks. The text has this:
The influence of xanthohumol and isoxanthohumol on the gut flora was examined by the following procedure using a high fat diet mouse model. […] The dosage is an intake (mg) of the test substance per kg body weight per day. In the table, “Regular diet” is control diet “[…]” (Research Diets), and “60 kcal % High-fat diet” is very high-fat diet “D12492” (Research Diets); “Catechins” is a preparation “Polyphenon […]” (product name, Mitsui Morin Co., Ltd.). Catechins were used as a positive control. Xanthohumol and isoxanthohumol were the standard samples (purity of 95% or higher) obtained in Preparation Example 1. [table] Mice (C57BL/6J, male, 7 weeks of age, CLEA Japan, Inc.) were purchased, and they were quarantined and acclimatized for one week. […] The selected animals were divided into groups (n=8 in each group) in the group structure shown in Table 1 by the stratified continuous randomization method based on body weight at the end of the acclimatization period. They were fed with free access to specific basic feed and water. The test substance was orally fed once a day for eight weeks. A dosing solution containing a mixture of the test substance and a solvent was used to administer the test substance. The solvent was a 0.5 wt % sodium carboxymethylcellulose (CMC) aqueous solution. The volume of the dosing solution to be administered to each mouse was 10 mL/kg. The amount of the test substance and the volume of the solution were calculated based on the latest body weight. 16S rRNA gene analysis was performed on feces (fresh feces) collected eight weeks after the start of intake of the test substance. 16S rRNA gene analysis was performed by the method described in Examples of JP 2018-8911 A. The abundance proportions (abundance ratio) of intestinal bacteria found in the feces were determined by the gene analysis as the abundance ratio of bacteria in the gut flora. FIG. 1 is a graph showing the abundance proportion (group average) of bacteria in the gut flora of each group. The abundance proportion shown in FIG. 1 is the ratio (occupancy) of each species of bacteria to the total bacterial count in the feces. Verrucomicrobia in FIG. 1 is a higher rank to which Akkermansia bacteria belong. All the Verrucomicrobia bacteria in this analysis were Akkermansia bacteria. The dosage (mg/kg) of isoxanthohumol (IXN) and xanthohumol (XN) in FIG. 1 is the intake (mg) of the test substance per kg body weight per day. […] The abundance ratio of Firmicutes bacteria to Bacteroidetes bacteria was as follows: 4.2 in Regular diet group; 7.4 in High fat diet group; 1.7 in Catechins group; 3.2 in Xanthohumol (60 mg/kg) group; 6.0 in Isoxanthohumol (60 mg/kg) group (Group No. 5); and 2.4 in Isoxanthohumol (180 mg/kg) group (Group No. 6).

Data set [3] has as its system gut flora (Akkermansia bacteria). The data set is described as follows: Example 2: 16S rRNA gene analysis of cecal contents two weeks after the start of intake. Format: in vivo. Conditions: 60 mg/kg body weight per day, compared to High fat diet group. As for the experimental part: 16S rRNA gene analysis was performed on feces (fresh feces) collected eight weeks after the start of intake of the test substance. 16S rRNA gene analysis was performed by the method described in Examples of JP 2018-8911 A. The abundance proportions (abundance ratio) of intestinal bacteria found in the feces were determined by the gene analysis as the abundance ratio of bacteria in the gut flora.
Another test was performed using isoxanthohumol as the test substance, with partial modification in the group structure and dosage design. In this test, the cecal contents were collected two weeks after the start of intake of the test substance, and 16S rRNA gene analysis was performed in the same manner as described above.

Turning to `COc1cc(O)c(CC=C(C)C)c2c1C(=O)CC(c1ccc(O)cc1)O2` (stereo not drawn) [Isoxanthohumol], the “stability at high temperature” value in data set [1] was “stable”. Moreover, the “abundance ratio of Firmicutes bacteria to Bacteroidetes bacteria” value in data set [2] (60 mg/kg/day oral) was 6.0. Also, the “abundance ratio of Firmicutes bacteria to Bacteroidetes bacteria” value in data set [2] (180 mg/kg/day oral) is 2.4. In addition, in data set [2], the “change in the abundance ratio of Firmicutes bacteria to Bacteroidetes bacteria, in words” value is given as “decrease” and the “abundance proportion of Akkermansia bacteria in the gut flora” value is “increase”. Also, the “abundance ratio of Akkermansia bacteria in the gut flora” value in data set [3] is “increase”.
`COc1cc(O)c(CC=C(C)C)c(O)c1C(=O)/C=C/c1ccc(O)cc1` [Xanthohumol]: the “abundance ratio of Firmicutes bacteria to Bacteroidetes bacteria” value in data set [2] (60 mg/kg/day oral) is 3.2. Moreover, in data set [2], the “change in the abundance ratio of Firmicutes bacteria to Bacteroidetes bacteria, in words” value was “decrease” and the “abundance proportion of Akkermansia bacteria in the gut flora” value is “increase”.
